The subject of series [1] is Enterococcus fecalis Strain SF 24397 NR31970. Kind of series: MIC of CAIs in BHIB and TSB. The series is classed as cell-based. As to conditions: Enterococcus, read-out: MIC. In short, it runs like this:
(§1)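 Broth microdilution per CLSI guidelines, with inoculum about 5×10^5 CFU/mL prepared from 0.5 McFarland suspensions in TSB or BHIB. Compounds were serially diluted and plates incubated aerobically at 37° C for 18-20 hours. MIC was the lowest concentration giving complete inhibition of visible growth.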

In series [2] the test system is Enterococcus faecalis—S613 HM-334. Kind of series: MIC of CAIs in BHIB and TSB. The series is classed as cell-based. To be noted: Enterococcus, read-out: MIC. In short, it runs like this:
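Broth microdilution per CLSI in TSB or BHIB, inoculum about 5×10^5 CFU/mL from 0.5 McFarland suspension, serial two-fold compound dilutions. Incubated aerobically at 37° C for 18-20 h; MIC is the lowest concentration completely inhibiting visible growth.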

Series [3] concerns Enterococcus faecium E417-HM-965. Briefly: MIC of CAIs in BHIB and TSB. To be noted: Enterococcus faecium, read-out: MIC. The series is classed as cell-based. In short, it runs like this: as §1
Series [4] deals with Enterococcus faecium Patient #2-1-NR-31909. Kind of series: MIC of CAIs in BHIB and TSB. The series is classed as cell-based. As to conditions: Enterococcus faecium, read-out: MIC. In short, it runs like this: as §1
Series [5] has as its system vancomycin-resistant E. faecium. Briefly: Mouse model of GI colonization by VRE. The series is classed as in vivo, C57BL/6 mice. From the text: Feasibility in vivo study: AZM reduces VRE load in the intestines and faeces. The promising feature, and the specific and potent antimicrobial activity of CAIs, prompted us to evaluate the in vivo efficacy of AZM in our established mouse model of GI colonization by enterococci with features that mimic the antibiotic-induced enterococcal expansion observed in humans (Mohammad, H. et al., Int J Antimicrob Agents 2018, 51, 897-904; Abdelkhalek, A, et al., PLoS One 2018, 13, e0199710). We tested AZM (two clinical doses 10 and 20 mg/kg) in female 12-week-old C57BL/6 mice (n=5 mice per group) that were sensitized with ampicillin ([…] in drinking water) for 7 days to reduce the microbiota present in the gastrointestinal tract and colonized with 10^8 CFU/mL of vancomycin-resistant E. faecium.
We thought that the rapid absorption of AZM from the gastrointestinal tract would limit their exposure time to VRE present in the gastrointestinal tract.
Mice were treated for 8 days with 10 mg/kg of drugs by oral gavage.

Another series concerns E. faecium NR 31909. To be noted: oral 20 mg/kg daily for 4 days. From the text: Saline was used as a negative control. Mice were euthanized on day 5 and organs (liver, spleen and kidneys) were aseptically removed and homogenized, and viable VRE were enumerated by serial dilution and plating.
For series [6] the following is noted: cited from earlier work.
For series [7] the following is noted: cited from earlier work. The source holds these as a separate data set.

Like-named read-outs stand apart in the source and are kept apart here. A value given as a limit tells only on which side of the number the result lay.

In the case of `CC(=O)NC[C@H]1CN(c2ccc(N3CCOCC3)c(F)c2)C(=O)O1` [Linezolid, reference compound], the MIC in series [1] (TSB, Table 5) turned out to be 1 µg/mL; in series [2] (BHIIB), 1 µg/mL; in series [2] (TSB, Table 5), 1 µg/mL.
As for `CC(=O)Nc1nnc(S(N)(=O)=O)s1` [Acetazolamide, reference compound], the MIC was 8 µg/mL in series [3] (E417HM965, BHIB); 2 µg/mL in series [3] (E417HM965, TSB, Table 5); 64 µg/mL in series [4] (BHIB); 2 µg/mL in series [4] (TSB, Table 5); over 128 µg/mL in series [1] (BHIB); 2 µg/mL in series [1] (TSB, Table 5). The MIC is over 128 µg/mL in series [2] (BHIIB) and 2 µg/mL in series [2] (TSB, Table 5). Besides, in series [5] (AZM 10 and 20 mg/kg, linezolid 10 mg/kg once daily for 8 days), the “VRE decolonization compared with linezolid” value is reported as “outperformed linezolid”. For the same compound, the “VRE in feces, cecal content and ileal content compared to control mice” value in series [5] (once a day at 10 mg/kg or 20 mg/kg, feces as early as 3rd day) was “significant reduction”. Besides, in the series with E. faecium NR 31909 (from two hours after challenge), the “mice protected against a lethal dose (survival)” value came to 100%. In addition, in the series on E. faecium NR 31909 (liver, spleen, kidneys on day 5), the “reduction of bacterial load in internal organs” value is recorded as “superior to linezolid”. For the same compound, in series [6] (after oral administration), the “time to peak plasma concentrations” value was 1 to 3 h. Moreover, the serum concentration in series [6] (after single oral dose) was 20000 to 100000 ng/mL. Besides, the “oral LD50 (mouse)” value in series [7] is 4300 mg/kg.

One may read the MIC as the smallest concentration in the dilution series that meets the test's criterion for growth inhibition.
